Reference: patent US5872124A, “Treatment of diseases of the central nervous system using uric acid as a scavenger of peroxynitrite” (Thomas Jefferson University, priority 1996, dated 1999)

Legend:
[1] = Side-effects of PTIO in EAE; format: in vivo
Experimental: The biological half-life of carboxy-PTIO are estimated to be less than five minutes in the blood when injected i.v. or i.p. into either rats or mice. Approximately 75% of the PTIO administered to mice can be accounted for in excretions within 4 hours. Nevertheless, the clinical symptoms of animals subjected to the stimuli that induce EAE and treated with PTIO are clearly alleviated for at least 24 hours between doses. […] It is possible that the removal of a significant quantity of NO may reduce the amount of tissue damage to a level that the animal can cope with. However, we believe that it is possible that the transient reduction of NO accumulation in an inflammatory response may have more wide ranging effects for instance through the disturbance of regulatory circuits effecting the production of NO or one of the other related substances involved in immunopathology. […] Through its effects on the circulation, NO may play a role in facilitating access of MBP specific T cells to the brain which could be inhibited by PTIO. It is also conceivable that a PTIO derivative formed by its interaction with NO also has some protective effect. […]

[2] = tested on: experimental allergic encephalomyelitis (EAE), immunization-elicited; assay: Clinical severity of immunization-elicited EAE in SJL mice; format: in vivo
Text: (§1) Induction of EAE in rats by adoptive transfer of MBP-specific T cells or in SJL or SWXJ-14 mice by immunization with MBP or PLP 139-151, a peptide derived from […] [8], results in variable disease. We have scored the clinical systems of EAE as tabulated below.
(§2) Severity scores and symptoms of Experimental Allergic
(§3) 1 piloerection, tail weakness
(§4) 3 hind limb weakness/paralysis
(§5) 4 hind and forelimb paralysis
SJL mice are immunized subcutaneously with pMBP in adjuvant to induce EAE, from which they often recover. Commencing ten days post-immunization, groups of mice (n=6) were treated once daily with 2 mg of either PTIO or carboxy-PTIO intraperitoneally and observed for clinical signs of EAE which were graded as detailed in Table 1. […] At 18 days […], NO determinations were performed in several mice from each group.

[3] = tested on: experimental allergic encephalomyelitis (EAE), MBP-specific T cell transfer; assay: Clinical severity of adoptive transfer EAE in Lewis rats; format: in vivo
Text: as §1
______________________________________
as §2, §3, §4, §5
In FIG. 1, EAE was elicited in 11 week old female Lewis rats by the adoptive transfer of 20×10^6 cells of the MBP-specific line 5HGBP.G5 activated by stimulation with MBP and syngeneic APC 48 hours previously and NO levels measured 5 days after transfer. In SWXJ-14 mice, EAE was triggered by two subcutaneous immunizations (d.0 and 7) with 100 μg PLP in CFA over two injection sites, and NO levels measured 18 days later. Results expressed represent the mean values obtained from a minimum of 4 animals. Peak severity of the symptoms of EAE ranged from 2-3 for the rats and 4-5 for the mice. NO was semi-quantitated using spin trapping with DETC and EPR-spectroscopy as described previously.
Rats were injected i.v. with 20×10^6 MBP-specific CD4 T cells activated in vitro. Two days later the animals were treated with a single dose of either PTIO (20 mg) or a mixture of PTIO (20 mg), indomethacin (1 mg), and allopurinol (13 mg). Treatment was continued on a daily basis until day 4 and animals were sacrificed for NO measurement the following day.

[4] = mice, within 4 hours [17]; cited from earlier work

CC1(C)N([O])C(c2ccccc2)=[N+]([O-])C1(C)C [PTIO, 2-phenyl-4,4,5,5-tetramethylimidazoline-1-oxyl-3-oxide]
Side-effects [1]: without notable side-effects
Onset and severity of EAE (FIG. 7) ([2]; 2 mg once daily i.p. from day 10 post-immunization, n=6): delayed onset of disease and somewhat lessened severity by comparison with untreated animals
Clinical symptoms of EAE ([2]; SJL mice, i.p. administration): forestall the appearance of clinical symptoms of EAE
Clinical severity ([2]; SJL mouse - immunization EAE, severity score 1-5, Table 2): 0.8
Symptoms of disease (FIG. 6) ([3]; PTIO 20 mg daily from day 2 to day 4 after T cell transfer, alone or in mix): little or no symptoms of disease
Clinical severity ([3]; Rat-adoptive transfer EAE, severity score 1-5, Table 2): 0.8
Duration of alleviation of clinical symptoms between doses ([3]; animals subjected to stimuli that induce EAE (species not specified)): at least 24 hours
Clinical symptoms of EAE ([3]; rats, MBP-specific T cell transfer, i.p. administration): forestall the appearance of clinical symptoms of EAE
Amount accounted for in excretions [4]: Approximately 75%
